Counter-ions that a name gives are not always drawn.
Target: T1, hS1P1 receptor (Homo sapiens, UniProt P21453)
T1 construct: host or cells: U2OS
Assay: hS1P1 receptor internalization assay (cell imaging-based, hS1P1-eGFP U2OS cells)
Conditions: U2OS cell line expressing hS1P1-eGFP, compounds incubated at 37° C. for one hour; for Emax: 1 h, efficacy (Max), read-out: hS1P1 Receptor Internalization (biolimaging) Max (%); for EC50: GFP-containing endosomes per cell (ArrayScan), read-out: hS1P1 Receptor Internalization (bioimaging) EC50 IP
Description: The activity of compounds of the invention was determined by a cell imaging-based assay measuring the degree of hS1P1 receptor internalization and a Ca^2+ mobilization assay measuring the level of S1P receptor activation. The receptor internalization assay was employed to determine the potency and efficacy of compounds on hS1P1 receptor, while Ca^2+ mobilization assay was used to determine selectivity among different S1P receptors and activity on S1P receptors from species such as rat, dog, and cyno. The hS1P1 receptor internalization assay was performed using a U2OS cell line expressing hS1P1-eGFP chimeric protein (Thermo Scientific, Soeborg, Denmark). Upon compound treatment, the hS1P1 receptor was internalized in cytoplasma and formed GFP-containing-endosomes. This event was detected by an automated microscope, ArrayScan (Thermo Scientific Cellomics, Pittsburg), and the degree of receptor internalization is quantitated by counting green fluorescent GFP-containing endosomes per cell. In this assay, hS1P1-eGFP expressing U2OS cells were starved in serum free media for two hours prior to compound treatment. Then compounds were incubated with the starved cells at 37° C. for one hour. Subsequently, compound-treated cells were fixed using 4% formaldehyde, and the nuclei were stained using Hoechst. Then the cells were imaged in ArrayScan. The potency and efficacy of the compounds were determined by plotting the number of green fluorescent GFP-containing endosomes per cell against corresponding compound concentration.

T1 sequence (P21453 whole entry): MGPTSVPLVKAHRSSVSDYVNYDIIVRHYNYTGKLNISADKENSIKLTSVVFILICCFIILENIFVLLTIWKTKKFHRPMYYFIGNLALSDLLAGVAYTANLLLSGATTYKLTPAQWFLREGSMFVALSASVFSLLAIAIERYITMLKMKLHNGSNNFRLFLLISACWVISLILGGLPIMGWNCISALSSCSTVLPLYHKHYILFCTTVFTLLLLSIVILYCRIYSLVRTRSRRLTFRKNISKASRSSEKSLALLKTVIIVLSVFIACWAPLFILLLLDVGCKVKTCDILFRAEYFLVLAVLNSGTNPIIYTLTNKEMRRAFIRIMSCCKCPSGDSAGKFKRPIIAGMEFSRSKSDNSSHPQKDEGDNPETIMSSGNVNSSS

Row | Structure (SMILES) | Emax [%] | EC50 [nM]
1 | NC(CO)(CCc1ccc(-c2nc3ccc(C4(c5ccccc5)CC4)nc3s2)c(F)c1)COP(=O)(O)O (racemic) [Example 43, (rac)-2-amino-4-(3-fluoro-4-(5-(1-phenylcyclopropyl)thiazolo[5,4-b]pyridine-2-yl)phenyl)-2-(hydroxymethyl)butyl dihydrogen phosphate] | 122 | 0.3
2 | O=C(O)C1CN(Cc2ccc(-c3nc4ccc(C5(c6ccccc6)CC5)nc4s3)c(F)c2)C1 [Example 1, 1-((3-fluoro-4-(5-(1-phenylcyclopropyl)thiazolo[5,4-b]pyridin-2-yl)-phenyl)methyl)azetidine-3-carboxylic acid] | 98 | 2.5
3 | O=C(O)C1(F)CN(Cc2ccc(-c3nc4ccc(C5(c6ccccc6)CC5)nc4s3)c(F)c2)C1 [Example 4, 3-fluoro-1-((3-fluoro-4-(5-(1-phenylcyclopropyl)thiazolo[5,4-b]pyridine-2-yl)phenyl)methyl)azetidine-3-carboxylic acid hydrochloride] | 121 | 1.2
4 | O=C(O)C1CN(Cc2ccc(-c3nc4ccc(C5(c6ccccc6)CC=CC5)nc4s3)c(F)c2)C1 [Example 5, 1-((3-fluoro-4-(5-(1-phenylcyclopent-3-enyl)thiazolo[5,4-b]pyridine-2-yl)phenyl)methyl)azetidine-3-carboxylic acid] | 90 | 130
5 | O=C(O)C1CN(Cc2ccc(-c3nc4ccc(C5(c6ccccc6)CCCCC5)nc4s3)c(F)c2)C1 [Example 7, 1-((3-fluoro-4-(5-(1-phenylcyclohexyl)thiazolo[5,4-b]pyridine-2-yl)-phenyl)methyl)azetidine-3-carboxylic acid] | 108 | 32.6
6 | O=C(O)C1CN(Cc2ccc(-c3nc4ccc(C5(c6ccccc6)CCO5)nc4s3)c(F)c2)C1 (centres unmarked) [Example 9, 1-((3-fluoro-4-(5-(2-phenyloxetan-2-yl)thiazolo[5,4-b]pyridine-2-yl)-phenyl)methyl)azetidine-3-carboxylic acid] | 144 | 28.6
7 | O=C(O)C1CN(Cc2ccc(-c3nc4ccc(C5(c6ccccc6)CC5)cc4s3)c(F)c2)C1 [Example 10, 1-((3-fluoro-4-(6-(1-phenylcyclopropyl)benzo[d]thiazol-2-yl)phenyl)-methyl)azetidine-3-carboxylic acid hydrochloride] | 97 | 42
8 | O=C(O)CCNCc1ccc(-c2nc3ccc(C4(c5ccccc5)CC4)nc3s2)c(F)c1 [Example 12, 3-((3-fluoro-4-(5-(1-phenylcyclopropyl)thiazolo[5,4-b]pyridine-2-yl)-phenyl)methylamino)propanoic acid hydrochloride] | 101 | 2
9 | O=C(O)CCNC(=O)c1ccc(-c2nc3ccc(C4(c5ccccc5)CC4)nc3s2)c(F)c1 [Example 14, 3-(3-fluoro-4-(5-(1-phenylcyclopropyl)thiazolo[5,4-b]pyridine-2-yl)-benzamido)propanoic acid] | 66 | 20.6
10 | Cc1cc(-c2nc3ccc(C4(c5ccccc5)CC4)nc3s2)cc(C)c1CN1CC(C(=O)O)C1 [Example 17, 1-((2,6-dimethyl-4-(5-(1-phenylcyclopropyl)thiazolo[5,4-b]-pyridin-2-yl)phenyl)methyl)azetidine-3-carboxylic acid] | 148 | 21
11 | Cc1cc(CN2CC(C(=O)O)C2)ccc1-c1nc2ccc(C3(c4ccccc4)CC3)nc2s1 [Example 19, 1-((3-methyl-4-(5-(1-phenylcyclopropyl)thiazolo[5,4-b]pyridine-2-yl)phenyl)methyl)azetidine-3-carboxylic acid] | 121 | 1.4
12 | NC1(c2ccc(-c3nc4ccc(C5(c6ccccc6)CC5)nc4s3)c(F)c2)CC1 [Example 20, 1-(3-fluoro-4-(5-(1-phenylcyclopropyl)thiazolo[5,4-b]pyridine-2-yl)phenyl)cyclopropanamine] | 160 | 31.2
13 | CC(C)(N)c1ccc(-c2nc3ccc(C4(c5ccccc5)CC4)nc3s2)c(F)c1 [Example 22, 2-(3-fluoro-4-(5-(1-phenylcyclopropyl)thiazolo[5,4-b]pyridine-2-yl)phenyl)-propan-2-amine] | 157 | 192
14 | O=C(O)CCc1ccc(-c2nc3ccc(C4(c5ccccc5)CC4)nc3s2)c(F)c1 [Example 27, 3-(3-fluoro-4-(5-(1-phenylcyclopropyl)thiazolo[5,4-b]pyridine-2-yl)-phenyl)propanoic acid] | 81 | 5880
15 | OCC(CO)Cc1ccc(-c2nc3ccc(C4(c5ccccc5)CC4)nc3s2)c(F)c1 [Example 29, 2-(3-fluoro-4-(5-(1-phenylcyclopropyl)thiazolo[5,4-b]pyridine-2-yl)benzyl)propane-1,3-diol] | 91 | 334
16 | O=C(O)C1(C(=O)O)CC(Cc2ccc(-c3nc4ccc(C5(c6ccccc6)CC5)nc4s3)c(F)c2)C1 [Example 30, 3-(3-fluoro-4-(5-(1-phenylcyclopropyl)thiazolo[5,4-b]pyridine-2-yl)benzyl)cyclobutane-1,1-dicarboxylic acid] | 79 | 2910
17 | OC1CN(Cc2ccc(-c3nc4ccc(C5(c6ccccc6)CC5)nc4s3)c(F)c2)C1 [Example 35, 1-(3-fluoro-4-(5-(1-phenylcyclopropyl)thiazolo[5,4-b]pyridin-2-yl)benzyl)-azetidin-3-ol] | 90 | 18.7
18 | O=C(O)C1CN(Cc2ccc(-c3nc4ccc(C5(c6ccccc6F)CC5)nc4s3)c(F)c2)C1 [Example 38, 1-(3-fluoro-4-(5-(1-(2-fluorophenyl)cyclopropyl)thiazolo[5,4-b]pyridine-2-yl)-benzyl)azetidine-3-carboxylic acid] | 111 | 3.7
19 | O=C(O)C1CN(Cc2ccc(-c3nc4ccc(C5(c6ccc(O)cc6)CC5)nc4s3)c(F)c2)C1 [Example 39, 1-(3-fluoro-4-(5-(1-(4-hydroxyphenyl)cyclopropyl)thiazolo[5,4-b]pyridine-2-yl)benzyl)azetidine-3-carboxylic acid] | 83 | 21.2
20 | NC(CO)(CO)CCc1ccc(-c2nc3ccc(C4(c5ccccc5)CC4)nc3s2)c(F)c1 [Example 42, 2-amino-2-(3-fluoro-4-(5-(1-phenylcyclopropyl)thiazolo[5,4-b]pyridin-2-yl)phenethyl)propane-1,3-diol hydrochloride] | 119 | 10.2
21 | O=C(O)C1CN(Cc2ccc(-c3nc4nc(C5(c6ccccc6)CC5)ccc4s3)c(F)c2)C1 [Example 44, 1-(3-fluoro-4-(5-(1-phenylcyclopropyl)thiazolo[4,5-b]pyridin-2-yl)-benzyl)azetidine-3-carboxylic acid trifluoroacetic acid salt] | 113 | 59.7
22 | O=C(O)C1CN(Cc2ccc(-c3nc4cnc(C5(c6ccccc6)CC5)cc4s3)c(F)c2)C1 [Example 45, 1-(3-fluoro-4-(6-(1-phenylcyclopropyl)thiazolo[4,5-c]pyridine-2-yl)benzyl)azetidine-3-carboxylic acid trifluoroacetic acid salt] | 103 | 99.7
23 | Nc1cc(CN2CC(C(=O)O)C2)ccc1-c1nc2ccc(C3(c4ccccc4)CC3)nc2s1 [Example 46, 1-(3-amino-4-(5-(1-phenylcyclopropyl)thiazolo[5,4-b]pyridin-2-yl)benzyl)azetidine-3-carboxylic acid] | 99 | 4.8
24 | O=C(O)C1CN(Cc2ccc(-c3nc4ccc(C5(C6CCCCC6)CC5)nc4s3)c(F)c2)C1 [Example 47, 1-(4-(5-(1-cyclohexylcyclopropyl)thiazolo[5,4-b]pyridine-2-yl)-3-fluorobenzyl)azetidine-3-carboxylic acid trifluoroacetic acid salt] | 117 | 5.9
25 | O=C(O)C1CN(Cc2ccc(-c3nc4ccc(C5(C6CCOCC6)CC5)nc4s3)c(F)c2)C1 [Example 52, 1-(3-fluoro-4-(5-(1-(tetrahydro-2H-pyran-4-yl)cyclopropyl)thiazolo[5,4-b]pyridine-2-yl)benzyl)azetidine-3-carboxylic acid trifluoroacetic acid salt] | 109 | 1190
26 | O=C(O)[C@@H]1C[C@H](c2ccc(-c3nc4ccc(C5(c6ccccc6)CC5)nc4s3)c(F)c2)CN1 [Example 54, (2S,4R)-4-(3-fluoro-4-(5-(1-phenylcyclopropyl)thiazolo[5,4-b]pyridine-2-yl)phenyl)pyrrolidine-2-carboxylic acid trifluoroacetic acid salt] | 126 | 4.5
27 | O=C(O)C(=O)NCCc1ccc(-c2nc3ccc(C4(c5ccccc5)CC4)nc3s2)c(F)c1 [Example 57, ((2-(3-fluoro-4-(5-(1-phenylcyclopropyl)[1,3]thiazolo[5,4-b]pyridin-2-yl)phenyl)ethyl)amino)(oxo)acetic acid] | 107 | 35.5
28 | Fc1cc(CCNCc2ccccc2)ccc1-c1nc2ccc(C3(c4ccccc4)CC3)nc2s1 [Example 60, N-benzyl-2-(3-fluoro-4-(5-(1-phenylcyclopropyl)[1,3]thiazolo[5,4-b]pyridin-2-yl)phenyl)ethanamine] | 162 | 721
